Legend:
[1] = tested on: human umbilical vein endothelial cells; experiment: Adherence of neutrophils to cultured (TNF-stimulated) endothelial cells; type: cell-based; conditions: peptides 0.5 mM
Method: (§1) Human umbilical vein endothelial cells (HUVEC, first passage, Clonetics, San Diego, Calif.) were subcultured at confluence into Terasaki tissue culture wells. After 24 hours, confluent monolayers were used for adherence assays. Monolayers were stimulated with 10 ng/ml TNF alpha (Boehringer Mannheim, Indianapolis, Ind.) at 37° C. for four hours. 30 μl of human neutrophils (10^6 /ml) were labeled with fluorescein by the method of Lo et al. (1991), J. Exp. Med. 173 1493-1500, and preincubated for 15 minutes at 37° C. with 20 μl of peptides (0.5 mM in HAP) or HAP (phosphate buffered saline containing 0.5 mg/ml human serum albumin, 3 mM glucose, and 0.3 U/ml aprotinin) as a control buffer. For some experiments, endothelial cells were pretreated from 10 minutes with Factor X or antibodies against Factor X receptor (EPR-1; Altieri et al. (1990), J. Immunol. 145, 246-253) 12H1 and 9D4 (obtained from Dr. D. Altieri, Scripps Research Institute, Lajolla, Calif.) and then washed. Neutrophils were allowed to adhere to the monolayer for 15 mins. at 37° C. and unbound cells were removed by submersion of the plate in PBS buffer. The number of adherent neutrophils was counted in a 40× microscope field and expressed as a percentage of adherence in control wells with neutrophils treated with HAP buffer alone. The mAb IB4 against CD18 (50 μg/ml; Merck Inc., Rahway, N.J.) served as a positive control.
(§2) The procedures for determining the neutrophil adherence to cultured endothelial cells and the transendothelial migration of neutrophils were identical with those of Example 9. Control values were the same as those shown in Example 9.

neutrophils = experiment: Transendothelial migration of neutrophils; type: cell-based, human; conditions: peptides 0.01 mM
Method: Transendothelial migration of neutrophils was studied based on a method described by Muller et al. (1992), J. Exp. Med. 176: 819-828. Briefly, human neutrophils suspended in ice-cold Hanks balanced salt solution (HBSS) containing Ca^++ and Mg^++ (Sigma) were fluoresceinated by adding 3.3 μl/ml 5-(and 6-)carboxyfluorescein diacetate, succinimidyl ester (CFSE, Molecular Probes Inc., Oreg.). After incubation for 30 mins. on ice, neutrophils were washed twice in cold HBSS with Ca^++ and Mg^++ and resuspended in cold Medium 199 (M199, Sigma) to a final concentration of 10^6 /ml. Human umbilical vein endothelial cells were subcultured at confluence into 96-well tissue culture plates (Becton Dickinson Labware, Lincoln Park, N.J.) that were coated with hydrated collagen gel (Vitrogen; Collagen Corporation, Palo Alto, Calif.) and fibronectin. Endothelial cells were stimulated with 10 ng/ml TNF-alpha for 4 hours and washed three times with warm M199. Neutrophils (10^6 /ml) were preincubated with 0.01 mM of peptides or with 1 μM of native FHA in M199 for 5 mins. on ice before they were added in 100 μl aliquots to the endothelial cells. For positive control, neutrophils were pre-incubated with 25 μg/ml anti-CD18 mAb IB4. For negative control, neutrophils were treated with 25 μg/ml mAb W6/32 against HLA class I antigen (Dako, Carpinteria, Calif.). The cells were incubated for 1 hour at 37° C., 5% CO2. To terminate transmigration, the supernatant fluid was aspirated and the wells were filled with warm 1 mM EGTA (Sigma) in HBSS without Ca and Mg. The plates were covered with plate sealers (Dynatech, Alexandria, Va.) and centrifuged in an inverted position at 250 g for 3 mins. at room temperature. To remove residual non-transmigrated neutrophils from the endothelial cells, monolayers were washed twice with 200 μl of warm Hanks solution without Ca and Mg. Fluorescence was quantitated using a fluorescence counter (Millipore Cytofluor™ 2300). The percentage of transmigrated neutrophils was determined by comparing the amount of fluorescence of test wells with that measured in collagen- and fibronectin-coated wells without endothelial cells. […] Percent inhibition of transendothelial migration of neutrophils was calculated by comparing the number of transmigrated cells in wells containing neutrophils treated with peptide to neutrophils treated with M199 alone and arbitrarily set at 100% transendothelial migration (TEM).
as §2

leukocytes in CSF = experiment: Rabbit meningitis model: leukocyte migration into CSF; type: in vivo; conditions: for mean leukocyte concentration in CSF: peptides 10 μM i.v.; for reduction of CSF leukocytosis: peptides 10 μM, FHA 0.1 μM
Method: (§3) The rabbit model was performed according to an established protocol. Specific pathogen free, New Zealand white rabbits (2 kg; Hare Marland, Nutley, N.J.) were anesthetized with valium (2.5 mg/kg, subcutaneously, Hoffman-LaRoche, Nutley, N.J.), ketamine (35 mg/kg, intramuscularly, Aveco, Fort Dodge, Iowa) and xylazine (5 mg/kg, intramuscularly, Miles Laboratories, Shawnee, Kans.) and a helmet of dental acrylic was affixed to the calvarium. Twenty four hours later, the rabbits were anesthetized with ethyl carbamate (1.75 g/kg; Aldrich Chemical Co., Milwaukee, Wis.) and pentobarbital (15 mg/kg; Abbott Laboratories, Abbott Park, Ill.) and placed in a stereotaxic frame. A spinal needle was introduced into the cisterna magna and 300 μl of CSF was withdrawn. The animals were challenged intracisternally with 10^8 heat killed, unencapsulated pneumococcus strain R6 introduced in 200 μl of saline (time 0). One hour later, animals were treated with peptides dissolved in 1 ml of saline by intravenous injection into the right marginal ear vein. The concentration of FHA was 0.1 μM and that of the FHA Ia, Factor X II, and scrambled FHA II peptides was 10 μM. For the acetyl-FHA II, acetyl/amide-FHA II, dimer of FHA II and trimer of FHA II peptides, the concentration was 10^-3 μM. The concentration of FHA II is given in the results section. Samples of CSF were withdrawn at hourly intervals after pneumococcal inoculation and leukocyte density was measured using a cell counter (Coulter Electronics Inc., Hialeah, Fla.). CSF samples were centrifuged at 10,000×g for 5 minutes and the supernatant was stored at -70° C. until assayed for protein concentration using the bicinchoninic acid method (BCA Kit, Pierce Chemical Co., Rockford, Ill.) and for lactate concentration (Lactate Detection Kit, Sigma, St. Louis, Mo.). Statistically significant differences between treatments were determined by a one way analysis of variance test.
The anti-inflammatory effects of the administered peptides were assessed in the rabbit model for meningitis by the procedures described in Example 10. The animals received 1 ml of 1 uM peptide intravenously. In a slight departure from the protocol described in Example 10, samples of blood were drawn from the left marginal ear vein 30 minutes after the administration of the peptides to determine peripheral leukocyte concentrations.

endothelial cells = experiment: Cooperative inhibition of neutrophil adherence by peptide plus antibody; type: cell-based, human; conditions: for additive reduction of neutrophil adherence: together with IB4 (50 μg/ml)
Method: as §1
The ability of FHA peptides and anti-CD18 or anti-Factor X receptor antibodies to interact cooperatively to inhibit neutrophil adherence to endothelial cells was assessed by measuring neutrophil adherence to endothelial cells in the presence of antibody as well as antibody plus peptide. Anti-CD18 mAb IB4 was added to leukocytes at 10 μg/ml 10 min before the assay. Anti-Factor X receptor mAb 12H1 (10 μl of ascites) or 9D4 (10 μg/ml) were added to the endothelial cell monolayers 10 min before the assay. The peptides were added at 5 μg/ml. The results are shown in Table 8 where the numerical values are in % of control binding.

Factor Xa = experiment: Generation of Factor Xa by monocytes (THP-1 cells); type: cell-based; conditions: 0.5 mM; for reduction of Factor Xa production: 20 min
Method: Factor Xa generation was determined by a modification of the method of Miletich et al. (1978), J. Biol. Chem. 253: 6908-6916. THP-1 cells (ATCC; 3×10^7 /ml) resuspended in RPMI 1640 (Bio Whittaker, Walkersville, Md.) were incubated with 100 μM ADP (Sigma), 2.5 mM CaCl2, 1 or 5 μg/ml Factor X (Hematologic Technologies Inc.) and 0.5 mM peptides at room temperature. After 20 minutes, 100 μl of the reaction mixture was transferred to 37° C. and supplemented with 100 μl of bovine factor VII- and Factor X-deficient plasma (Sigma). Coagulation was initiated by adding 100 μl of 25 mM CaCl2 and the clotting time was determined. Factor Xa procoagulant activity (ng/ml) was calculated by means of a standard curve constructed by serial concentrations of Factor Xa (Hematologic Technologies Inc.) from 50 to 250 ng/ml.

blood brain barrier = experiment: Rabbit meningitis model: CSF protein and lactate (blood brain barrier permeability); type: in vivo; conditions: 10 μM peptides, 0.1 μM FHA
Method: as §3
Loss of barrier function of the cerebral capillary endothelium during inflammation is reflected by an influx of serum proteins into the CSF. […] To examine if the peptides were able to ameliorate these measures of cerebral injury, CSF protein and lactate concentrations were measured hourly in peptide-treated and control animals (Table 10).
Leukocyte migration into the CSF in bacterial meningitis is associated with loss of barrier function of the cerebral capillary endothelium, resulting in influx of serum proteins into the CSF. To determine whether FHA peptides were able to prevent this leukocyte-dependent injury, protein concentrations in the CSF were measured throughout the course of inflammation in peptide-treated and control animals.

C3bi = experiment: Inhibition of binding of 12.1F9 to E-C3bi by peptides; set-up: species or system human; conditions: for block of binding of 12.1F9 to C3bi: e-c3bi on antibody-coated wells
Description: The antibody 12.1F9 maps to the region 1279-2011 of FHA. When the derived amino acid sequence of this region was compared to that of C3, a region of 11 amino acids with similar sequence was found between FHA residues 1408-1418 and C3 residues 1187-1197 (Table 14). […] However, the FHA-20-mer and the homologous C3-derived peptide blocked binding by up to 60%.

[2] = peptide 5 μg/ml plus 9D4 10 μg/ml
[3] = peptide 5 μg/ml plus 12H1 10 μl of ascites
[4] = peptide 5 μg/ml plus IB4 10 μg/ml

## DEETVK [scrambled FHA II, reference compound]
[1]
  interference with neutrophil adherence (in words): did not interfere with neutrophil binding
neutrophils
  % Inhibition of TEM: 4 ± 5%
Leukocytes in CSF; 7 hours
  mean leukocyte concentration in CSF: 6431±1380 /μl CSF

## ETKEVDG [FHA II]
Endothelial cells; [2]
  % of control binding: 45 ± 9 % of control binding
Endothelial cells; [3]
  % of control binding: 67 ± 13 % of control binding
Endothelial cells; [4]
  % of control binding: 11 ± 6 % of control binding
Endothelial cells; peptide 5 μg/ml, no antibody
  % of control binding: 40 ± 23 % of control binding
Endothelial cells
  additive reduction of neutrophil adherence: > 80±10%
Factor Xa
  Factor Xa generation (in words): did not interfere with the generation of Factor Xa procoagulant activity
Leukocytes in CSF; 10^-3 μM i.v.
  anti-inflammatory effect (in words): ineffective
Leukocytes in CSF; 7 hours
  mean leukocyte concentration in CSF: 2645±1412 /μl CSF
Leukocytes in CSF; 7 hours, 10^-1 μM
  leukocyte density vs control (in words): statistically significantly different from control
Leukocytes in CSF
  reduction of CSF leukocytosis: > 60%
Blood brain barrier
  protein influx into CSF and lactate generation (in words): significantly reduced protein influx into the CSF and generation of lactate

## GLIQGRSVKVD [FHA Ib]
neutrophils
  % Inhibition of TEM: 7 ± 10%
Factor Xa
  reduction of Factor Xa production: 81%

## GLYQAKRFKVG [Factor X I, reference compound]
Factor Xa
  Factor Xa generation (in words): substantial reduction that did not reach statistical significance

## GRTRG [FHA III]
[1]
  interference with neutrophil adherence (in words): less effective than the corresponding Factor X derived peptide
neutrophils
  % Inhibition of TEM: 5 ± 6%
Factor Xa
  reduction of Factor Xa production: 74%

## GYDTKQEDG [Factor X II, reference compound]
Factor Xa
  reduction of Factor Xa production: > 90%
Leukocytes in CSF; 7 hours
  mean leukocyte concentration in CSF: 1622±521 /μl CSF
Leukocytes in CSF
  reduction of CSF leukocytosis: > 60%
Blood brain barrier
  protein influx into CSF and lactate generation (in words): no significant reduction

## IDRSMKTRG [Factor X III, reference compound]
neutrophils
  % Inhibition of TEM: 5 ± 7%
Factor Xa
  Factor Xa generation (in words): substantial reduction that did not reach statistical significance

## LGYQAK [FHA Ia]
[1]
  interference with neutrophil adherence (in words): significantly more active than the Factor X peptide I
Endothelial cells; [2]
  % of control binding: 63 ± 17 % of control binding
Endothelial cells; [3]
  % of control binding: 64 ± 12 % of control binding
Endothelial cells; [4]
  % of control binding: 20 ± 7 % of control binding
Endothelial cells; peptide 5 μg/ml, no antibody
  % of control binding: 63 ± 12 % of control binding
Endothelial cells
  additive reduction of neutrophil adherence: > 80±10%
Leukocytes in CSF; 7 hours
  mean leukocyte concentration in CSF: 1640±1210 /μl CSF
Leukocytes in CSF
  reduction of CSF leukocytosis: > 60%
Blood brain barrier
  protein influx into CSF and lactate generation (in words): no significant reduction

## VTVGRGDPHQG [FHA RGD]
C3bi; peptides 50 μg/ml, normalized to a control value of 100
  Adherence index: 85 ± 9

## YTVAIAGYALA [C3-pep 1187-1197]
C3bi
  block of binding of 12.1F9 to C3bi: up to 60%

## YTVSADAIALA (YTVAIAGYALA) [FHA 1408-1418]
C3bi
  block of binding of 12.1F9 to C3bi: up to 60%

From patent publication US6015560A, “Antibody recognizing endothelial cell ligand for leukocyte CR3” (priority 1995, dated 2000)
